Assay results as given in US11986532B2 (Arvinas Operations, Inc., priority 2021, dated 2024).

Target: T1, BCL6 (Homo sapiens, UniProt P41182)
T1 construct: endogenous in cells; host or cells: T47D breast cancer epithelial cells
Experiment: Immunofluorescence protocol for high content imaging of BCL6 (degradation) in T47D cells, 3 days compound treatment
Assay type: cell-based
Settings: T47D cells, 3 days compound treatment; for DC50: read-out: Mean DC50 (nM)* category; for Dmax: read-out: Mean Dmax (%)** category
Description: Immunofluorescence Protocol for High Content Imaging of BCL6
T47D cells were seeded in 100 μl volume of RPMI1640-10% FBS in a 96-well black/clear bottom plates for adherent lines (Corning #3904).
Day 1. T47D breast cancer epithelial cells were seeded at a density so that confluence is ˜70-90% at endpoint. Cells were seeded at 7K/0.1 ml/well the morning prior to the addition of exemplary bifunctional degradation compounds.
Day 2. Prepare an 11 point 3-fold serial dilution of exemplary bifunctional compound in DMSO and aliquot an appropriate volume to cell growth media to generate a 2× final concentration of exemplary bifunctional compound. Add an equal volume (0.1 ml) of 2× exemplary bifunctional compound/media mix to previously plated cells, for a final top concentration in aqueous cell growth media of 0.1 or 1 μM. Incubate for 3 days at 37° C., 5% CO2.
Day 5 Immunofluorescence. Discard cell media. Wash wells with 200 μl of room temperature phosphate-buffered saline (PBS). Prepared 4% paraformaldehyde (PFA) from 16% PFA (Electron Microscopy Sciences #15710) using 1×PBS. Fifty μl of 4% PF was added to each well and incubate for 15 minutes at room temperature to fix the cells. The PFA was aspirated and the cells washed twice with PBS (200 μl)).
Prepared 0.1% Triton X-100 in PBS using 10% triton X-100 stock. The cells were permeabilized by adding 100 ul of the 0.1% Triton X-100 in PBS to each well to permeabilize cells and incubating at room temperature for 15 minutes. Cells were washed twice with PBS.
Prepared 3% BSA/PBS (from Thermofisher #37515 Blocker BSA in TBS, 10%), and 100 ul was added to each well. The cells were incubated for at least 1 hour at room temperature.
Prepared 1% BSA/PBS using Blocker BSA/PBS, and the 3% BSA/PBS removed from the wells.
For no primary antibody controls, 50 μl 1% BSA/PBS was added.
Primary antibody (BCL6 Rb Ab, CST-14895, Cell Signaling) was diluted 1:300 in 1% BSA/PBS using Blocker BSA/PBS.
Fifty μl of primary antibody added to all remaining wells (i.e., all wells other than the primary antibody controls) and the cells were incubated overnight at 4° C. with slow orbital movement.
Day 6. Contents of the wells was removed and the cells washed four times with 200 ul PBS. 1% BSA/PBS was prepared using Blocker BSA in PBS.
Diluted secondary antibody goat anti-Rb IgG Alexa-488 1:1000, and cell mask-Alexa-647 1:3000 in 1% BSA/PBS in the same mix. Add 50 μl to each well and incubate at room temperature for 1 hour in the dark.
Cells were washed three times with 200 ul PBS, and then incubated for 10 minutes with 100 ul Hoechst dye at 1 μg/mL (20 mM stock) to stain cell nuclei. Wells were then washed with 200 μl PBS, and 100 ul of PBS was added to each well and the plate covered plate with a plastic opaque cover. Plates were stored at 4° C. and covered in aluminum foil until imaged.
Plates were equilibrated to room temperature prior to reading. The bottom of the plate was wiped with 70% isopropanol immediately prior to imaging.
10×, 4 fields/well, include Top hat smoothing in the analysis protocol.
16% paraformaldehyde: Electron Microscopy Sciences #15710
Hoechst: Thermofisher #62249
Blocker BSA in PBS, 10%: Thermofisher #37515
Blocker BSA in TBS, 10%: Thermofisher #37520
Goat anti-rabbit or mouse AlexaFluor-488: Thermofisher #A11008
Cell mask deep red AlexaFluor-647: Thermofisher #C10046
Wash buffer, PBS: 20×PBS, Thermofisher

| Compound | DC50 [nM] | Dmax [%] |
| --- | --- | --- |
| CNC(=O)COc1cc2cc(Nc3nc(N4CCN(CC5CCN(c6cc7c(cc6OC)C(=O)N(C6CCC(=O)NC6=O)C7)CC5)CC4)ncc3Cl)ccc2n(C(C)C)c1=O (stereo not shown) [Compound 21, 2-{[6-({5-chloro-2-[4-({1-[2-(2,6-dioxopiperidin-3-yl)-6-methoxy-1-oxo-2,3-dihydro-1H-isoindol-5-yl]piperidin-4-yl}methyl)piperazin-1-yl]pyrimidin-4-yl}amino)-2-oxo-1-(propan-2-yl)-1,2-dihydroquinolin-3-yl]oxy}-N-methylacetamide] | < 10 | < 50 |
| CNC(=O)COc1cc2cc(Nc3nc(N4CCC5(CC4)CN(C(=O)C4CCN(c6cccc7c6CN(C6CCC(=O)NC6=O)C7=O)CC4)C5)ncc3Cl)ccc2n(C(C)C)c1=O (stereo not shown) [Compound 22, 2-[(6-{[5-chloro-2-(2-{1-[2-(2,6-dioxopiperidin-3-yl)-1-oxo-2,3-dihydro-1H-isoindol-4-yl]piperidine-4-carbonyl}-2,7-diazaspiro[3.5]nonan-7-yl)pyrimidin-4-yl]amino}-2-oxo-1-(propan-2-yl)-1,2-dihydroquinolin-3-yl)oxy]-N-methylacetamide] | < 10 | 50 to 70 |
| CNC(=O)COc1cc2cc(Nc3nc(N4CCN(C[C@H]5C[C@@H](N6CCC(c7cccc8c7C(=O)N(C7CCC(=O)NC7=O)C8=O)CC6)C5)CC4)ncc3Cl)ccc2n(C(C)C)c1=O (stereo partly shown) [Compound 23, 2-[(6-{[5-chloro-2-(4-{[(1s,3s)-3-{4-[2-(2,6-dioxopiperidin-3-yl)-1,3-dioxo-2,3-dihydro-1H-isoindol-4-yl]piperidin-1-yl}cyclobutyl]methyl}piperazin-1-yl)pyrimidin-4-yl]amino}-2-oxo-1-(propan-2-yl)-1,2-dihydroquinolin-3-yl)oxy]-N-methylacetamide] | 50 to 100 | < 50 |
| CNC(=O)COc1cc2cc(Nc3nc(N4CCN(C[C@H]5C[C@H](N6CCC(c7cccc8c7C(=O)N(C7CCC(=O)NC7=O)C8=O)CC6)C5)CC4)ncc3Cl)ccc2n(C(C)C)c1=O (stereo partly shown) [Compound 24, 2-[(6-{[5-chloro-2-(4-{[(1r,3r)-3-{4-[2-(2,6-dioxopiperidin-3-yl)-1,3-dioxo-2,3-dihydro-1H-isoindol-4-yl]piperidin-1-yl}cyclobutyl]methyl}piperazin-1-yl)pyrimidin-4-yl]amino}-2-oxo-1-(propan-2-yl)-1,2-dihydroquinolin-3-yl)oxy]-N-methylacetamide] | 50 to 100 | < 50 |
| CNC(=O)COc1cc2cc(Nc3nc(N4CCN(CC5CCN(c6ccc7c(c6F)CN(C6CCC(=O)NC6=O)C7=O)CC5)CC4)ncc3Cl)ccc2n(C(C)C)c1=O (stereo not shown) [Compound 25, 2-{[6-({5-chloro-2-[4-({1-[2-(2,6-dioxopiperidin-3-yl)-4-fluoro-1-oxo-2,3-dihydro-1H-isoindol-5-yl]piperidin-4-yl}methyl)piperazin-1-yl]pyrimidin-4-yl}amino)-2-oxo-1-(propan-2-yl)-1,2-dihydroquinolin-3-yl]oxy}-N-methylacetamide] | < 10 | < 50 |
| CNC(=O)COc1cc2cc(Nc3nc(N4CCN(CC5CCN(c6cc7c(c(OC)c6)C(=O)N(C6CCC(=O)NC6=O)C7)CC5)CC4)ncc3Cl)ccc2n(C(C)C)c1=O (stereo not shown) [Compound 26] | < 10 | 50 to 70 |
| CNC(=O)COc1cc2cc(Nc3nc(N4CCC5(CC4)CC(C(=O)N4CCN(c6cccc7c6CN(C6CCC(=O)NC6=O)C7=O)CC4)C5)ncc3Cl)ccc2n(C(C)C)c1=O (stereo not shown) [Compound 27, 2-[(6-{[5-chloro-2-(2-{4-[2-(2,6-dioxopiperidin-3-yl)-1-oxo-2,3-dihydro-1H-isoindol-4-yl]piperazine-1-carbonyl}-7-azaspiro [3.5]nonan-7-yl)pyrimidin-4-yl]amino}-2-oxo-1-(propan-2-yl)-1,2-dihydroquinolin-3-yl)oxy]-N-methylacetamide] | < 10 | 50 to 70 |
| CNC(=O)COc1cc2cc(Nc3nc(N4CCC(OC5CCN(c6ccc7c(c6)CN(C6CCC(=O)NC6=O)C7=O)CC5)CC4)ncc3Cl)ccc2n(C(C)C)c1=O (stereo not shown) [Compound 28, 2-{[6-({5-chloro-2-[4-({1-[2-(2,6-dioxopiperidin-3-yl)-1-oxo-2,3-dihydro-1H-isoindol-5-yl]piperidin-4-yl}oxy)piperidin-1-yl]pyrimidin-4-yl}amino)-2-oxo-1-(propan-2-yl)-1,2-dihydroquinolin-3-yl]oxy}-N-methylacetamide] | < 10 | 50 to 70 |
| CNC(=O)COc1cc2cc(Nc3nc(N4CCCCC4)ncc3Cl)ccc2n(CCOc2ccc3c(c2)C(=O)N(C2CCC(=O)NC2=O)C3=O)c1=O (stereo not shown) [Compound 29, 2-[(6-{[5-chloro-2-(piperidin-1-yl)pyrimidin-4-yl]amino}-1-(2-{[2-(2,6-dioxopiperidin-3-yl)-1,3-dioxo-2,3-dihydro-1H-isoindol-5-yl]oxy}ethyl)-2-oxo-1,2-dihydroquinolin-3-yl)oxy]-N-methylacetamide] | 10 to 50 | 50 to 70 |
| CNC(=O)COc1cc2cc(Nc3nc(N4CCC(O[C@H]5CC[C@H](Oc6ccc7c(c6)C(=O)N(C6CCC(=O)NC6=O)C7=O)CC5)CC4)ncc3Cl)ccc2n(C(C)C)c1=O (stereo partly shown) [Compound 30, 2-[(6-{[5-chloro-2-(4-{[(1r,4r)-4-{[2-(2,6-dioxopiperidin-3-yl)-1,3-dioxo-2,3-dihydro-1H-isoindol-5-yl]oxy}cyclohexyl]oxy}piperidin-1-yl)pyrimidin-4-yl]amino}-2-oxo-1-(propan-2-yl)-1,2-dihydroquinolin-3-yl)oxy]-N-methylacetamide] | 10 to 50 | 50 to 70 |
| CNC(=O)COc1cc2cc(Nc3nc(N4CCC(O[C@H]5CC[C@H](Oc6cccc7c6C(=O)N(C6CCC(=O)NC6=O)C7=O)CC5)CC4)ncc3Cl)ccc2n(C(C)C)c1=O (stereo partly shown) [Compound 31, 2-[(6-{[5-chloro-2-(4-{[(1r,4r)-4-{[2-(2,6-dioxopiperidin-3-yl)-1,3-dioxo-2,3-dihydro-1H-isoindol-4-yl]oxy}cyclohexyl]oxy}piperidin-1-yl)pyrimidin-4-yl]amino}-2-oxo-1-(propan-2-yl)-1,2-dihydroquinolin-3-yl)oxy]-N-methylacetamide] | < 10 | 50 to 70 |
| CNC(=O)COc1cc2cc(Nc3nc(N4CCCC4)ncc3Cl)ccc2n(CCOc2ccc3c(c2)C(=O)N(C2CCC(=O)NC2=O)C3=O)c1=O (stereo not shown) [Compound 32, 2-[(6-{[5-chloro-2-(pyrrolidin-1-yl)pyrimidin-4-yl]amino}-1-(2-{[2-(2,6-dioxopiperidin-3-yl)-1,3-dioxo-2,3-dihydro-1H-isoindol-5-yl]oxy}ethyl)-2-oxo-1,2-dihydroquinolin-3-yl)oxy]-N-methylacetamide] | 10 to 50 | 50 to 70 |
| CNC(=O)COc1cc2cc(Nc3nc(N4CC(C)OC(C)C4)ncc3Cl)ccc2n(CCOc2ccc3c(c2)C(=O)N(C2CCC(=O)NC2=O)C3=O)c1=O (stereo not shown) [Compound 33, 2-[(6-{[5-chloro-2-(2,6-dimethylmorpholin-4-yl)pyrimidin-4-yl]amino}-1-(2-{[2-(2,6-dioxopiperidin-3-yl)-1,3-dioxo-2,3-dihydro-1H-isoindol-5-yl]oxy}ethyl)-2-oxo-1,2-dihydroquinolin-3-yl)oxy]-N-methylacetamide] | 50 to 100 | < 50 |
| CNC(=O)COc1cc2cc(Nc3nc(N4CCC5(CC4)CC(C(C)(C)N4CCN(c6cccc7c6CN(C6CCC(=O)NC6=O)C7=O)CC4)C5)ncc3Cl)ccc2n(C(C)C)c1=O (stereo not shown) [Compound 34, 2-{[6-({5-chloro-2-[2-(2-{4-[2-(2,6-dioxopiperidin-3-yl)-1-oxo-2,3-dihydro-1H-isoindol-4-yl]piperazin-1-yl}propan-2-yl)-7-azaspiro[3.5]nonan-7-yl]pyrimidin-4-yl}amino)-2-oxo-1-(propan-2-yl)-1,2-dihydroquinolin-3-yl]oxy}-N-methylacetamide] | < 10 | 50 to 70 |
